# According to paper PMC6109062, “The dual methyltransferase METTL13 targets N terminus and Lys55 of eEF1A and modulates codon-specific translation rates” (Nature Communications, 2018):
# Target: T1, MT13-N (N-terminal methyltransferase domain of METTL13) (Homo sapiens, UniProt Q8N6R0)
# T1 construct: N-terminal methyltransferase domain, His6-tagged, E. coli
# T1 sequence (Q8N6R0 1-245 limits assumed): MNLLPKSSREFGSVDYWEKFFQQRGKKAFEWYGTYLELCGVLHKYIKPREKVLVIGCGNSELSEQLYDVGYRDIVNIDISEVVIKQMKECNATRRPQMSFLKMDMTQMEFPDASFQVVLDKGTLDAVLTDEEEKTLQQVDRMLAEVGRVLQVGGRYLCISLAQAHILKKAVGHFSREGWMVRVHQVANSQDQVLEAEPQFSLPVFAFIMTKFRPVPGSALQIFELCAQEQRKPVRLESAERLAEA
# Test: [3H]AdoMet methyl transfer to eEF1A1, fluorography; MS
# Format: biochemical
# Conditions: co-substrate eEF1A1 (Lys55), no nucleotide added; pH 7.4, 1 mM MgCl2, 30 °C; labelled compound
structure (smiles),measurement,value
C[S+](CC[C@H](N)C(=O)O)C[C@H]1O[C@@H](n2cnc3c(N)ncnc32)[C@H](O)[C@@H]1O (stereo partly shown) [AdoMet],"[3H]AdoMet methyl transfer to eEF1A1, fluorography; MS",Recombinant eEF1A was incubated with MT13-N in the presence of AdoMet
